Measured values from the kinase profiling compilation of Christmann-Franck et al. (2016).

What was measured:
Assay in all cases: KINOMEscan competition binding
Details in all cases: compound 1.0 µM
[1] = tested on: EGFR (human), P00533 [747-751 del / S ins]
MARK1 (human) = MARK1 (human) (UniProt Q9P0L2)
GSK3A (human) = GSK3A (human) (UniProt P49840)
SIK1 (human) = SIK1 (human) (UniProt P57059)
PRKACA (human) = PRKACA (human) (UniProt P17612)
CDK11B (human) = CDK11B (human) (UniProt P21127)
CAMK2G (human) = CAMK2G (human) (UniProt Q13555)
CDC2L2 (human) = CDC2L2 (human) (UniProt Q9UQ88)
STK38L (human) = STK38L (human) (UniProt Q9Y2H1)
SRC (human) = SRC (human) (UniProt P12931)
PRKCI (human) = PRKCI (human) (UniProt P41743)
RPS6KA6 KD2 (human) = RPS6KA6 KD2 (human) (UniProt Q9UK32)
FGR (human) = FGR (human) (UniProt P09769)
PRKAA1 (human) = PRKAA1 (human) (UniProt Q13131)
[2] = tested on: PIK3CA (human), P42336 [I800L]
PRPF4B (human) = PRPF4B (human) (UniProt Q13523)
PIP5K1C (human) = PIP5K1C (human) (UniProt O60331)
STK38 (human) = STK38 (human) (UniProt Q15208)
STK32C (human) = STK32C (human) (UniProt Q86UX6)
PLK4 (human) = PLK4 (human) (UniProt O00444)
STK33 (human) = STK33 (human) (UniProt Q9BYT3)
STK10 (human) = STK10 (human) (UniProt O94804)
SRMS (human) = SRMS (human) (UniProt Q9H3Y6)
MAP3K12 (human) = MAP3K12 (human) (UniProt Q12852)
CDK17 (human) = CDK17 (human) (UniProt Q00537)
MKNK1 (human) = MKNK1 (human) (UniProt Q9BUB5)
RIPK4 (human) = RIPK4 (human) (UniProt P57078)
ROCK2 (human) = ROCK2 (human) (UniProt O75116)
RPS6KA1 KD1 (human) = RPS6KA1 KD1 (human) (UniProt Q15418)
PIM1 (human) = PIM1 (human) (UniProt P11309)
FRK (human) = FRK (human) (UniProt P42685)
MAP2K2 (human) = MAP2K2 (human) (UniProt P36507)
TLK1 (human) = TLK1 (human) (UniProt Q9UKI8)
TBK1 (human) = TBK1 (human) (UniProt Q9UHD2)
PAK1 (human) = PAK1 (human) (UniProt Q13153)
NTRK2 (human) = NTRK2 (human) (UniProt Q16620)
DYRK2 (human) = DYRK2 (human) (UniProt Q92630)
STK39 (human) = STK39 (human) (UniProt Q9UEW8)
HIPK2 (human) = HIPK2 (human) (UniProt Q9H2X6)
MAP3K2 (human) = MAP3K2 (human) (UniProt Q9Y2U5)
SLK (human) = SLK (human) (UniProt Q9H2G2)
BRAF (human) = BRAF (human) (UniProt P15056)
TYRO3 (human) = TYRO3 (human) (UniProt Q06418)

Chain of PLK4 (human) (O00444 whole entry, looked up): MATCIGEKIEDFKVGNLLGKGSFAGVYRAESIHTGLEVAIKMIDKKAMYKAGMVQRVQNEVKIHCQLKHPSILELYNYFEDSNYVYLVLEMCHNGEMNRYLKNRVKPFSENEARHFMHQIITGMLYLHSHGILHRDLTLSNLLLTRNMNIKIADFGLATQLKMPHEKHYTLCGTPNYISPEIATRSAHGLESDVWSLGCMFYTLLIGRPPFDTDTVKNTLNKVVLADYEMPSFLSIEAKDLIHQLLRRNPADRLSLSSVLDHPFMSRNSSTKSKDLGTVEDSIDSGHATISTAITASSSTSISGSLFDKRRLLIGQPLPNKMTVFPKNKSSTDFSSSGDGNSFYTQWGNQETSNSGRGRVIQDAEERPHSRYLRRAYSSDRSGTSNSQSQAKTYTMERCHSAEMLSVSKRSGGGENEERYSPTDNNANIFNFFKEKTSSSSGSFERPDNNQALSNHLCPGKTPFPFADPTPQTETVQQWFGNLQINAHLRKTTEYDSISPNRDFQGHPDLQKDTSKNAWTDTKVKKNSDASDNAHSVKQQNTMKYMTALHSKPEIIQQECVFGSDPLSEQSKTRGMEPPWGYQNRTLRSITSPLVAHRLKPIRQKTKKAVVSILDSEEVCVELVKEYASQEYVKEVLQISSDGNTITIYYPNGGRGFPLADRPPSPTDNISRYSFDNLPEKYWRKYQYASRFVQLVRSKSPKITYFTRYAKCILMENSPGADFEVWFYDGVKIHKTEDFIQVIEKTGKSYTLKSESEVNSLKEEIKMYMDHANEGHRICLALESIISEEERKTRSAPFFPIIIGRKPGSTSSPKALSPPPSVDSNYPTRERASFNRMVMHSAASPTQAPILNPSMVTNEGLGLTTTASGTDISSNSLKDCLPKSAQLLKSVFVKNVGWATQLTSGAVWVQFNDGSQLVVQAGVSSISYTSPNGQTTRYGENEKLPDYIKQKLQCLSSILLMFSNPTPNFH
Chain of SRC (human) (P12931 whole entry, looked up): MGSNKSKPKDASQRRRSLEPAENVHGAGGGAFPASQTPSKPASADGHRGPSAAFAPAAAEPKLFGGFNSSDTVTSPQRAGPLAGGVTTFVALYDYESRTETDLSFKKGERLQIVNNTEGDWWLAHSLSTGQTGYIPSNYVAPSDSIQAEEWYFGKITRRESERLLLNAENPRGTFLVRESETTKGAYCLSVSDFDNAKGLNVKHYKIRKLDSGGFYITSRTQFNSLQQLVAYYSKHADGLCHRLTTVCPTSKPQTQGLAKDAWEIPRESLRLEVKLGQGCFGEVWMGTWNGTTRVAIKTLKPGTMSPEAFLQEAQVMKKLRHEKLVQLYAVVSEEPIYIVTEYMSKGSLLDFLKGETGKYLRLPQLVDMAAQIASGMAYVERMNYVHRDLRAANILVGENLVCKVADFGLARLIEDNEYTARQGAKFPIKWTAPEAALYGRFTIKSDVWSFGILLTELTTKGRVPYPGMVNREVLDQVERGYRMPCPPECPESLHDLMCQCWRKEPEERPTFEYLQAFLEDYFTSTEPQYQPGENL
Chain of CAMK2G (human) (Q13555 whole entry, looked up): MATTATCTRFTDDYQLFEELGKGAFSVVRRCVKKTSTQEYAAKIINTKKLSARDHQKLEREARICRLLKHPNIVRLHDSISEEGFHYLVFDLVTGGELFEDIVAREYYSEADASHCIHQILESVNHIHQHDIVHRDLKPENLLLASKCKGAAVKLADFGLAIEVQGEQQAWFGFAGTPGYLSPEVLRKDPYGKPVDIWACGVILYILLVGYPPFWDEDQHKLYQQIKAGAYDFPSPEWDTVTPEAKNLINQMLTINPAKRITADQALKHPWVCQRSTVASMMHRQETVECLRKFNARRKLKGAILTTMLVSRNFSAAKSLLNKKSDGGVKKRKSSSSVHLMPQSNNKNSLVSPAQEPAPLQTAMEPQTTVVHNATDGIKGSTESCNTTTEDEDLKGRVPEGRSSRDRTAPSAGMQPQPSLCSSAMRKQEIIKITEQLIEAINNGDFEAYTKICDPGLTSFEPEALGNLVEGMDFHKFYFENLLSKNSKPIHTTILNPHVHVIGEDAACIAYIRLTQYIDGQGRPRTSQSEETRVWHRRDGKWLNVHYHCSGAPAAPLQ
Chain of PRKCI (human) (P41743 whole entry, looked up): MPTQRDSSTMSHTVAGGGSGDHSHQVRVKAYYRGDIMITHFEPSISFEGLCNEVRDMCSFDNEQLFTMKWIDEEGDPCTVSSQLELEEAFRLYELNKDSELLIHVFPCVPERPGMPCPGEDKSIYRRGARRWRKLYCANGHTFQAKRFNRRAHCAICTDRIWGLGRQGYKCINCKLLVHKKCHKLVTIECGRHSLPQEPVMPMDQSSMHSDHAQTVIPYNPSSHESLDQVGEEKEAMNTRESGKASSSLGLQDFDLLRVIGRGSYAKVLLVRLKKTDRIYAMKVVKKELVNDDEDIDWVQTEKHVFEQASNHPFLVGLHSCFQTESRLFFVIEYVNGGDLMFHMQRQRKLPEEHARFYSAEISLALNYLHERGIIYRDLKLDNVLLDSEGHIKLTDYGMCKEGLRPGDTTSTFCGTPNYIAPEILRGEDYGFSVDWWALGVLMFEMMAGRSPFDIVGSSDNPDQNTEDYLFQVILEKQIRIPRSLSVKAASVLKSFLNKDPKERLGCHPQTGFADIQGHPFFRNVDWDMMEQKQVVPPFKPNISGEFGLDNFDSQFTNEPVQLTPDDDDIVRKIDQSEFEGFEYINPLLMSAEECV
Chain of NTRK2 (human) (Q16620 whole entry, looked up): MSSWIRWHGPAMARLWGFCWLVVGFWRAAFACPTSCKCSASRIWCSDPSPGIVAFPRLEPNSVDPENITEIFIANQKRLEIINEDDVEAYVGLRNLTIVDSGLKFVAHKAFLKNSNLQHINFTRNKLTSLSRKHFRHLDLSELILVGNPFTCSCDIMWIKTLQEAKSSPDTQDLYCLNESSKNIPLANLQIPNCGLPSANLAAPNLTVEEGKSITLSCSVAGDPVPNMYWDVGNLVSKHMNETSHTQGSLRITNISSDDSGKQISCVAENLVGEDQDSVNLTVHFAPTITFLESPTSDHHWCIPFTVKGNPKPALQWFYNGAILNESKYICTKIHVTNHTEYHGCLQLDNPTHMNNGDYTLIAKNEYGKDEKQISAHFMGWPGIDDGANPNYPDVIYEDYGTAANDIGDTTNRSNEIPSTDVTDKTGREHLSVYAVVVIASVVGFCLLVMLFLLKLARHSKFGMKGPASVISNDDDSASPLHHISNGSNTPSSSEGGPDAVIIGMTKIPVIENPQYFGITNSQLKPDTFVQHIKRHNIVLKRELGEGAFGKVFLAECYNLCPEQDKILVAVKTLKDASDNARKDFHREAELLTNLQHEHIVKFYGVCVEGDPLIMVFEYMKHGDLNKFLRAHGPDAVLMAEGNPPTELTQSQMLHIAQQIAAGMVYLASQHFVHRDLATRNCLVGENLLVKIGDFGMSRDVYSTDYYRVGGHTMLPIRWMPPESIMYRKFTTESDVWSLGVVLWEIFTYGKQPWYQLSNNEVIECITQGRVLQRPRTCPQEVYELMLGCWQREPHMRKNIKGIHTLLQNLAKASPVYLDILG
Chain of RIPK4 (human) (P57078 whole entry, looked up): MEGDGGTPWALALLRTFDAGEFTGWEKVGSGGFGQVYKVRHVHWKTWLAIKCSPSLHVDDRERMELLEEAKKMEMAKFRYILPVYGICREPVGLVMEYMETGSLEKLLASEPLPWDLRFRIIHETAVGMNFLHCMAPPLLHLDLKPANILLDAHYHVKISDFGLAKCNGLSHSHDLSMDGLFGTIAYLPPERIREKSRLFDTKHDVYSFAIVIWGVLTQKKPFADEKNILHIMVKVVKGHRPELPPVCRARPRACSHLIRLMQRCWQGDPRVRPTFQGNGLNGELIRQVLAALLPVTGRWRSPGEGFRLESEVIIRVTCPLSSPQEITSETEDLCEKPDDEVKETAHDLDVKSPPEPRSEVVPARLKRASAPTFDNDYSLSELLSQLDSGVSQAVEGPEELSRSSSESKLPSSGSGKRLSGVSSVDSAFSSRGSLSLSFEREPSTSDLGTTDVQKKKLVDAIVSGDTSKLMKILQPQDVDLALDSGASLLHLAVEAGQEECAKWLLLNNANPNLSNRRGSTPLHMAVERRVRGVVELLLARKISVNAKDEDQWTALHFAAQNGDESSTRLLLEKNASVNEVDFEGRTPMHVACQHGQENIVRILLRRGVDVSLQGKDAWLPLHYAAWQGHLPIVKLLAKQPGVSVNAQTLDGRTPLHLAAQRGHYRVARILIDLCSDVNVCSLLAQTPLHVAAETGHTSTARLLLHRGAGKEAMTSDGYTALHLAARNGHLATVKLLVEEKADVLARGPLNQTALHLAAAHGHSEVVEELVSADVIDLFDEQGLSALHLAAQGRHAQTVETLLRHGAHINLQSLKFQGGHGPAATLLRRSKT
Chain of MAP2K2 (human) (P36507 whole entry, looked up): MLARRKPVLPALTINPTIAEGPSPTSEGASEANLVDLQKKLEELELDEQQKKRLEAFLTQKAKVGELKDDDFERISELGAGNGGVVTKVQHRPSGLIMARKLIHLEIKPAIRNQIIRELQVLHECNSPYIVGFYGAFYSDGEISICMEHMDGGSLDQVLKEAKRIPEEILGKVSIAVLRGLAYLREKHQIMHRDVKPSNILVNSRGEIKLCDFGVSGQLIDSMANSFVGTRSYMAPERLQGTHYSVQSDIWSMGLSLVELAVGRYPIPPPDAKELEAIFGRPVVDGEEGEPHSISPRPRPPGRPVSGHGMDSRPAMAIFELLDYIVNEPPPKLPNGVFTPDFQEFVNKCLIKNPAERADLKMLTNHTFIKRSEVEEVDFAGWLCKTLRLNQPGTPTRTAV
Chain of PIM1 (human) (P11309 whole entry, looked up): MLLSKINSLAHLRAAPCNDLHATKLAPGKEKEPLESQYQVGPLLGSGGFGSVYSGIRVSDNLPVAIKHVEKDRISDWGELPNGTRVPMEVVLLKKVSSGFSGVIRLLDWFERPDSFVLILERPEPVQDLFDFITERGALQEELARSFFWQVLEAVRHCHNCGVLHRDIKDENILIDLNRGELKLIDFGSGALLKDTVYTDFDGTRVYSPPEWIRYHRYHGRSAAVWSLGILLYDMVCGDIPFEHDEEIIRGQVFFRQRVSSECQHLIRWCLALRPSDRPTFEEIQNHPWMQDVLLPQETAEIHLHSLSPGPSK

## CN(C)C/C=C/C(=O)Nc1cccc(C(=O)Nc2ccc(Nc3nccc(-c4c(-c5ccccc5)nn5ccccc45)n3)cc2)c1
[1]
  kinase still bound, per cent of control: 3.4%
MARK1 (human)
  kinase still bound, per cent of control: 100%
GSK3A (human)
  kinase still bound, per cent of control: 38%
SIK1 (human)
  kinase still bound, per cent of control: 29%
PRKACA (human)
  kinase still bound, per cent of control: 99%
CDK11B (human)
  kinase still bound, per cent of control: 43%
CAMK2G (human)
  kinase still bound, per cent of control: 100%
CDC2L2 (human)
  kinase still bound, per cent of control: 32%
STK38L (human)
  kinase still bound, per cent of control: 100%
SRC (human)
  kinase still bound, per cent of control: 18%
PRKCI (human)
  kinase still bound, per cent of control: 46%
RPS6KA6 KD2 (human)
  kinase still bound, per cent of control: 13%
FGR (human)
  kinase still bound, per cent of control: 10%
PRKAA1 (human)
  kinase still bound, per cent of control: 100%
[2]
  kinase still bound, per cent of control: 77%
PRPF4B (human)
  kinase still bound, per cent of control: 100%
PIP5K1C (human)
  kinase still bound, per cent of control: 87%
STK38 (human)
  kinase still bound, per cent of control: 97%
STK32C (human)
  kinase still bound, per cent of control: 99%
PLK4 (human)
  kinase still bound, per cent of control: 92%
STK33 (human)
  kinase still bound, per cent of control: 91%
STK10 (human)
  kinase still bound, per cent of control: 23%
SRMS (human)
  kinase still bound, per cent of control: 87%
MAP3K12 (human)
  kinase still bound, per cent of control: 84%
CDK17 (human)
  kinase still bound, per cent of control: 100%
MKNK1 (human)
  kinase still bound, per cent of control: 96%
RIPK4 (human)
  kinase still bound, per cent of control: 100%
ROCK2 (human)
  kinase still bound, per cent of control: 75%
RPS6KA1 KD1 (human)
  kinase still bound, per cent of control: 100%
PIM1 (human)
  kinase still bound, per cent of control: 84%
FRK (human)
  kinase still bound, per cent of control: 32%
MAP2K2 (human)
  kinase still bound, per cent of control: 88%
TLK1 (human)
  kinase still bound, per cent of control: 67%
TBK1 (human)
  kinase still bound, per cent of control: 100%
PAK1 (human)
  kinase still bound, per cent of control: 98%
NTRK2 (human)
  kinase still bound, per cent of control: 14%
DYRK2 (human)
  kinase still bound, per cent of control: 100%
STK39 (human)
  kinase still bound, per cent of control: 82%
HIPK2 (human)
  kinase still bound, per cent of control: 97%
MAP3K2 (human)
  kinase still bound, per cent of control: 52%
SLK (human)
  kinase still bound, per cent of control: 18%
BRAF (human)
  kinase still bound, per cent of control: 43%
TYRO3 (human)
  kinase still bound, per cent of control: 81%
